From patent EP4722212A1, “NOVEL COMPOUND FOR INHIBITING PROTEIN KINASES AND PHARMACEUTICAL COMPOSITION COMPRISING SAME” (Magicbullettherapeutics Co., Ltd., priority 2023, dated 2024)
Read-outs that look alike come from different tables or passages of the source.

Key:
Test in all cases: Kinase panel
Type in all cases: biochemical
ALK3/BMPR1A = ALK3/BMPR1A (Homo sapiens, UniProt P36894); details: read-out: residual enzyme activity
Experimental: (§1) To measure the inhibitory activity of protein kinases against the compounds of the present invention, a biochemical assay was performed using a full kinase panel. The inhibitory efficacy of kinases was measured when Example compounds 8 and 51 were treated at a single concentration of 1 µM, and residual enzyme activity values were calculated. Kinases were identified when the calculated residual enzyme activity values were 40% or less, i.e., inhibited by 60% or more.

BMPR2 = BMPR2 (Homo sapiens, UniProt Q13873); details: BMPR2, 1 µM; read-out: residual enzyme activity
Experimental: as §1

CAMKIG = CAMKIG (Homo sapiens, UniProt Q96NX5); details: read-out: residual enzyme activity
Experimental: as §1

CAMKK1 = CAMKK1 (Homo sapiens, UniProt Q8N5S9); details: CAMKK1, 1 µM; read-out: residual enzyme activity
Experimental: as §1

CDK18/CYCLIN Y (PCTK3) = CDK18/CYCLIN Y (PCTK3) (Homo sapiens, UniProt Q07002); details: read-out: residual enzyme activity
Experimental: as §1

CDK7/CYCLIN H = CDK7/CYCLIN H (Homo sapiens, UniProt P50613); details: read-out: residual enzyme activity
Experimental: as §1

CDK9/CYCLIN T2 = CDK9/CYCLIN T2 (Homo sapiens, UniProt P50750); details: CDK9/cyclin T2, 1 µM; read-out: residual enzyme activity
Experimental: as §1

EPHB1 = EPHB1 (Homo sapiens, UniProt P54762); details: EPHB1, 1 µM; read-out: residual enzyme activity
Experimental: as §1

EPHB4 = EPHB4 (Homo sapiens, UniProt P54760); details: EPHB4, 1 µM; read-out: residual enzyme activity
Experimental: as §1

FAK/PTK2 = FAK/PTK2 (Homo sapiens, UniProt Q05397); details: FAK/PTK2, 1 µM; read-out: residual enzyme activity
Experimental: as §1

FES/FPS = FES/FPS (Homo sapiens, UniProt P07332); details: read-out: residual enzyme activity
Experimental: as §1

FGFR3 = FGFR3 (Homo sapiens, UniProt P22607); details: FGFR3, 1 µM; read-out: residual enzyme activity
Experimental: as §1

GRK6 = GRK6 (Homo sapiens, UniProt P43250); details: GRK6, 1 µM; read-out: residual enzyme activity
Experimental: as §1

IKKA/CHUK = IKKA/CHUK (Homo sapiens, UniProt O15111); details: read-out: residual enzyme activity
Experimental: as §1

IKKE/IKBKE = IKKE/IKBKE (Homo sapiens, UniProt Q14164); details: read-out: residual enzyme activity
Experimental: as §1

JAK3 = JAK3 (Homo sapiens, UniProt P52333); details: JAK3, 1 µM; read-out: residual enzyme activity
Experimental: as §1

LCK2/ICK = LCK2/ICK (Homo sapiens, UniProt Q9UPZ9); details: read-out: residual enzyme activity
Experimental: as §1

MAPKAPK2 = MAPKAPK2 (Homo sapiens, UniProt P49137); details: MAPKAPK2, 1 µM; read-out: residual enzyme activity
Experimental: as §1

MAST3 = MAST3 (Homo sapiens, UniProt O60307); details: MAST3, 1 µM; read-out: residual enzyme activity
Experimental: as §1

MEK5 = MEK5 (Homo sapiens, UniProt Q13163); details: MEK5, 1 µM; read-out: residual enzyme activity
Experimental: as §1

MEKK2 = MEKK2 (Homo sapiens, UniProt Q9Y2U5); details: MEKK2, 1 µM; read-out: residual enzyme activity
Experimental: as §1

MYO3A = MYO3A (Homo sapiens, UniProt Q8NEV4); details: read-out: residual enzyme activity
Experimental: as §1

NEK5 = NEK5 (Homo sapiens, UniProt Q6P3R8); details: NEK5, 1 µM; read-out: residual enzyme activity
Experimental: as §1

NEK9 = NEK9 (Homo sapiens, UniProt Q8TD19); details: NEK9, 1 µM; read-out: residual enzyme activity
Experimental: as §1

NLK = NLK (Homo sapiens, UniProt Q9UBE8); details: read-out: residual enzyme activity
Experimental: as §1

PKN1/PRK1 = PKN1/PRK1 (Homo sapiens, UniProt Q16512); details: PKN1/PRK1, 1 µM; read-out: residual enzyme activity
Experimental: as §1

RET = RET (Homo sapiens, UniProt P07949); details: read-out: residual enzyme activity
Experimental: as §1

RIPK4 = RIPK4 (Homo sapiens, UniProt P57078); details: RIPK4, 1 µM; read-out: residual enzyme activity
Experimental: as §1

SIK3 = SIK3 (Homo sapiens, UniProt Q9Y2K2); details: SIK3, 1 µM; read-out: residual enzyme activity
Experimental: as §1

SYK = SYK (Homo sapiens, UniProt P43405); details: read-out: residual enzyme activity
Experimental: as §1

TBK1 = TBK1 (Homo sapiens, UniProt Q9UHD2); details: TBK1, 1 µM; read-out: residual enzyme activity
Experimental: as §1

TRKB = TRKB (Homo sapiens, UniProt Q16620); details: read-out: residual enzyme activity
Experimental: as §1

TSSK3/STK22C = TSSK3/STK22C (Homo sapiens, UniProt Q96PN8); details: read-out: residual enzyme activity
Experimental: as §1

ZIPK/DAPK3 = ZIPK/DAPK3 (Homo sapiens, UniProt O43293); details: ZIPK/DAPK3, 1 µM; read-out: residual enzyme activity
Experimental: as §1

Sequence of NEK9 (Q8TD19 whole entry, species assumed): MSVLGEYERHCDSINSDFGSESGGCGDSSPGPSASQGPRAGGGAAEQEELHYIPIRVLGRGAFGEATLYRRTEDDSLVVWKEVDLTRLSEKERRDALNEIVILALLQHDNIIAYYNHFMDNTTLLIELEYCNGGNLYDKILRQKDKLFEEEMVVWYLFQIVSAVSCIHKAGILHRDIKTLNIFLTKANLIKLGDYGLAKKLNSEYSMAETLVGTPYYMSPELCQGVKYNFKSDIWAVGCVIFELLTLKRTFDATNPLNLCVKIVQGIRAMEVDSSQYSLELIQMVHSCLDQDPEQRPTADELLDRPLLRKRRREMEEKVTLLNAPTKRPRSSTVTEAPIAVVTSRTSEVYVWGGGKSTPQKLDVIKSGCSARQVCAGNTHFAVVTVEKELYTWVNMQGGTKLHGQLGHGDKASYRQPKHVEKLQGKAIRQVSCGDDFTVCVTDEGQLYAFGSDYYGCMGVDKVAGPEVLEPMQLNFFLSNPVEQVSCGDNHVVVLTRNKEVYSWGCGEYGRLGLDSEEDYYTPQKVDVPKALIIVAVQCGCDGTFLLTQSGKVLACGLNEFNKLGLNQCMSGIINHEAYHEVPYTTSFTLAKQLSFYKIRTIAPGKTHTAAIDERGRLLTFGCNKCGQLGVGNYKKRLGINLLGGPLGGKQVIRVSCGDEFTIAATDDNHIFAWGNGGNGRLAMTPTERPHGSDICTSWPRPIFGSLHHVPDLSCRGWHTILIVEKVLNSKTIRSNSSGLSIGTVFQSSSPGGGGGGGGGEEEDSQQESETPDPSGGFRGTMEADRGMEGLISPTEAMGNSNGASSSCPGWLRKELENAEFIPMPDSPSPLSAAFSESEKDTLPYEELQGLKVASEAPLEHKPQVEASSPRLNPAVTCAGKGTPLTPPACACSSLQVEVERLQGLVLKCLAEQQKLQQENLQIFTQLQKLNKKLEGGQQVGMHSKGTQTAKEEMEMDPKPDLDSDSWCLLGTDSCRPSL
Sequence of PKN1/PRK1 (Q16512 whole entry): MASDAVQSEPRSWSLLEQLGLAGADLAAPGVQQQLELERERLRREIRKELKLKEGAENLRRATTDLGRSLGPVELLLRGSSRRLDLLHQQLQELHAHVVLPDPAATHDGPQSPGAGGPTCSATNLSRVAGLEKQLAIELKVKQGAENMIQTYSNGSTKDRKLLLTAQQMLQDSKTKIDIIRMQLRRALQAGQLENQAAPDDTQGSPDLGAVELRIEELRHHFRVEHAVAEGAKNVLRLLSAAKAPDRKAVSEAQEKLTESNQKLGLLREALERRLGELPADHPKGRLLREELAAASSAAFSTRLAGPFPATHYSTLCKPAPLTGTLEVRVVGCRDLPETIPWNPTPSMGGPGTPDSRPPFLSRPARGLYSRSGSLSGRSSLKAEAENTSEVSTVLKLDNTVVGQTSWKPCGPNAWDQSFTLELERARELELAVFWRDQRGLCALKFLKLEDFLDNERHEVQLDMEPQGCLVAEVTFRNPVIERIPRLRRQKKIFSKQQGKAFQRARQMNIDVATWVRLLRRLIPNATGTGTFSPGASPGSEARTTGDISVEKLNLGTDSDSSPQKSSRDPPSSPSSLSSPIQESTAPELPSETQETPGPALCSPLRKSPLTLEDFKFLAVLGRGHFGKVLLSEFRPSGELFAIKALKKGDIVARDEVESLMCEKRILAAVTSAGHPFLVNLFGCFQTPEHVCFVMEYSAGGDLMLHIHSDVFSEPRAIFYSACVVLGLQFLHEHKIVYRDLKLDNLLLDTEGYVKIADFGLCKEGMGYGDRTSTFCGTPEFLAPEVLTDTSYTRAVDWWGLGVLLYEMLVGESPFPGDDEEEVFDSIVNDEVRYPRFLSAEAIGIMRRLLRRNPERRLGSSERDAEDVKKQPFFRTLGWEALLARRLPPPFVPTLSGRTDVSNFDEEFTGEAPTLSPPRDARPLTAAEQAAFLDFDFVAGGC
Sequence of FAK/PTK2 (Q05397 whole entry): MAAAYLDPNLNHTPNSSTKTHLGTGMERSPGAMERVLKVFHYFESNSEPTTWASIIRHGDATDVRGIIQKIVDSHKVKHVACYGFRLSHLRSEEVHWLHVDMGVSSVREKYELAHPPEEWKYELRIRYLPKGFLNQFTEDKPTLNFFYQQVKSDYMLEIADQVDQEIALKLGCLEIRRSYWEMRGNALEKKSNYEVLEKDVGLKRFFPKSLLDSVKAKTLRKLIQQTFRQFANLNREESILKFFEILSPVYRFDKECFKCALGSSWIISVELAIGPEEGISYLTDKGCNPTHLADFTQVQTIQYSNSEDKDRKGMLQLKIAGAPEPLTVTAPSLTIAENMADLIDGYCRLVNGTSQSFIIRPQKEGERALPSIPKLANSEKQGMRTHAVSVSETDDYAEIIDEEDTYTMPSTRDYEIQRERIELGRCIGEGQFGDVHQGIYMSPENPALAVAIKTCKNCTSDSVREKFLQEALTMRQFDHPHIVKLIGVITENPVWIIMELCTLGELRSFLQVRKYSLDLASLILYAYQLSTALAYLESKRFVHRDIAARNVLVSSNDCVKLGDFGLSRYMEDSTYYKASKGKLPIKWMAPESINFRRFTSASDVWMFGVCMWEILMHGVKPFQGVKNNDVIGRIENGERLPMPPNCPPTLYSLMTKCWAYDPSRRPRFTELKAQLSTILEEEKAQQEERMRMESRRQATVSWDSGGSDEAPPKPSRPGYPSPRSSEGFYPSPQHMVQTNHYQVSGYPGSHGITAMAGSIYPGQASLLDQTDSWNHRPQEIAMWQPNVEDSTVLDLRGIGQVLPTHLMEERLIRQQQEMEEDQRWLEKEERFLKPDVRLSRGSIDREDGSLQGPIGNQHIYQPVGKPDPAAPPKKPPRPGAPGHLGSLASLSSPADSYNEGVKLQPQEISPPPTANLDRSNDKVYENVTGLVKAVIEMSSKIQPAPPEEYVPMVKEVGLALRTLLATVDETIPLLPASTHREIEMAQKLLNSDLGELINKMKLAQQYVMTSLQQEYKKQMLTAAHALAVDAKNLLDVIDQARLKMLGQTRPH
Sequence of MAST3 (O60307 whole entry, species assumed): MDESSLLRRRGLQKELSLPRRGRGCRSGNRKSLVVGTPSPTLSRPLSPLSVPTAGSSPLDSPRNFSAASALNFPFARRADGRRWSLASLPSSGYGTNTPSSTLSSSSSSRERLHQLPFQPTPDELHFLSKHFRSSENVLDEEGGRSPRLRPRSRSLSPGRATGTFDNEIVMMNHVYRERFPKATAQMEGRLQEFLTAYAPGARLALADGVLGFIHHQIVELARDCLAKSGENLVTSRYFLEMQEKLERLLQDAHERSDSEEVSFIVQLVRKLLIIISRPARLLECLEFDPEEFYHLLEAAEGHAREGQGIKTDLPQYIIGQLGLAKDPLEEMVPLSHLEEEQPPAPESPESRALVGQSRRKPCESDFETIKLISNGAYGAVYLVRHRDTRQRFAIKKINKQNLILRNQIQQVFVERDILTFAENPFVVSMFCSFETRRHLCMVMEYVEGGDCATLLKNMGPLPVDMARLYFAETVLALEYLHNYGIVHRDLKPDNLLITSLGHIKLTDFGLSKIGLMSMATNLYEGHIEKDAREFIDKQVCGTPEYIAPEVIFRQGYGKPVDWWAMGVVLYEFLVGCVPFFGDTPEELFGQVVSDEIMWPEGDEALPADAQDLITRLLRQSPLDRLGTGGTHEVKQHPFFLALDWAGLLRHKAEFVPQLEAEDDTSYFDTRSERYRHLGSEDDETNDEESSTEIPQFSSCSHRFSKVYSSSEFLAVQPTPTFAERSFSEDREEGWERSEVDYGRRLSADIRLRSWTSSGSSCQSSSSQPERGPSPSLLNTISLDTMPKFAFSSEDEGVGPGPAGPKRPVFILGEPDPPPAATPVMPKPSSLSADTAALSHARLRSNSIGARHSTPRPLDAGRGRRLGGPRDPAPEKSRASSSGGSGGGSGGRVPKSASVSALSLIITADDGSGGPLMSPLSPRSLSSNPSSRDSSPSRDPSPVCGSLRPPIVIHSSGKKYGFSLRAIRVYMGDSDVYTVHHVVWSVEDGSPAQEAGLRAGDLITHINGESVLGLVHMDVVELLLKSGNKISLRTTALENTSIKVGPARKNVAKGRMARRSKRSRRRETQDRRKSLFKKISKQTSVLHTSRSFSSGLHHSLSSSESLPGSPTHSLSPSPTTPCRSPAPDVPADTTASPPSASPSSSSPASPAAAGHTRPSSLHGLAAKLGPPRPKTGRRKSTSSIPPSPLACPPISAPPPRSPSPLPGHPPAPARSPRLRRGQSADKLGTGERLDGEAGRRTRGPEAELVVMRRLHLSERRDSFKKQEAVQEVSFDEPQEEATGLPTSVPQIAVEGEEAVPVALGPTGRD
Sequence of MAPKAPK2 (P49137 whole entry, species assumed): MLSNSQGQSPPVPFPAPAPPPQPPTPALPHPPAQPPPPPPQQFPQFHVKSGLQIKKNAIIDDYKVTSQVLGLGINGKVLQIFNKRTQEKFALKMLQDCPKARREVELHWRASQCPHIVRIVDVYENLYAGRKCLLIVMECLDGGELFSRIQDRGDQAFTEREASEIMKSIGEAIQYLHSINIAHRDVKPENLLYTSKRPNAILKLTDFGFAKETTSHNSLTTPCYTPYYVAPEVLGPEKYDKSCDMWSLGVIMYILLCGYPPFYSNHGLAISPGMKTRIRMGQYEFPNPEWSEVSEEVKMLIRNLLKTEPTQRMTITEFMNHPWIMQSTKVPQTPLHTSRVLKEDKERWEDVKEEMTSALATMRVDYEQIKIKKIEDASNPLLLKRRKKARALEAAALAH
Sequence of TSSK3/STK22C (Q96PN8 whole entry): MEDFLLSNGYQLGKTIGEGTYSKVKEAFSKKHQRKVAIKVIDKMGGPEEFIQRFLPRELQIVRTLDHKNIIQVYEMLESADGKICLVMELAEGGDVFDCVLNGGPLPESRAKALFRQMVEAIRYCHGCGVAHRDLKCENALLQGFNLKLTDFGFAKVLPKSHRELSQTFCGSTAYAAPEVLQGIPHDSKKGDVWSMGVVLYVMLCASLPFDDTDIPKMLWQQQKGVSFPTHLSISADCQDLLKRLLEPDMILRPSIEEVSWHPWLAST

SMILES | remaining activity at 1 µM (ALK3/BMPR1A) | remaining activity at 1 µM (BMPR2) | remaining activity at 1 µM (CAMKK1) | remaining activity at 1 µM (CDK18/CYCLIN Y (PCTK3)) | remaining activity at 1 µM (CDK7/CYCLIN H) | remaining activity at 1 µM (CDK9/CYCLIN T2) | remaining activity at 1 µM (EPHB1) | remaining activity at 1 µM (EPHB4) | remaining activity at 1 µM (FAK/PTK2) | remaining activity at 1 µM (FES/FPS) | remaining activity at 1 µM (FGFR3) | remaining activity at 1 µM (GRK6) | remaining activity at 1 µM (IKKA/CHUK) | remaining activity at 1 µM (IKKE/IKBKE) | remaining activity at 1 µM (JAK3) | remaining activity at 1 µM (LCK2/ICK) | remaining activity at 1 µM (MAPKAPK2) | remaining activity at 1 µM (MAST3) | remaining activity at 1 µM (MEK5) | remaining activity at 1 µM (MEKK2) | also measured
Cc1ccc(Nc2ncc3c(n2)C2(CC2)C(=O)N(c2cc(NC(=O)c4cccc(C(F)(F)F)c4)ccc2C)C3)cn1 [Compound 51, N-(4-methyl-3-(2'-((6-methylpyridin-3-yl)amino)-7'-oxo-5'H-spiro[cyclopropane-1,8'-pyrido[4,3-d]pyrimidine]-6'(7'H)-yl)phenyl)-3-(trifluoromethyl)benzamide] | > 40% | > 40% | > 40% | > 40% | > 40% | > 40% | ≤ 40% | ≤ 40% | ≤ 40% | ≤ 40% | ≤ 40% | > 40% | > 40% | > 40% | ≤ 40% | > 40% | > 40% | > 40% | ≤ 40% | ≤ 40% | remaining activity at 1 µM (CAMKIG; CAMK1g): > 40%; remaining activity at 1 µM (MYO3A): > 40%; remaining activity at 1 µM (NEK5): > 40%; remaining activity at 1 µM (NEK9): > 40%; remaining activity at 1 µM (NLK): > 40%; remaining activity at 1 µM (PKN1/PRK1): > 40%; remaining activity at 1 µM (RET): ≤ 40%; remaining activity at 1 µM (RIPK4): > 40%; remaining activity at 1 µM (SIK3): ≤ 40%; remaining activity at 1 µM (SYK): ≤ 40%; remaining activity at 1 µM (TBK1): > 40%; remaining activity at 1 µM (TRKB): ≤ 40%; remaining activity at 1 µM (TSSK3/STK22C): > 40%; remaining activity at 1 µM (ZIPK/DAPK3): > 40%
Cc1cn(-c2cc(C(=O)Nc3ccc(C)c(N4Cc5cnc(NC6CC6)nc5C5(CC5)C4=O)c3)cc(C(F)(F)F)c2)cn1 [Compound 8, N-(3-(2'-(cyclopropylamino)-7'-oxo-5'H-spiro[cyclopropane-1,8'-pyrido[4,3-d]pyrimidine]-6'(7'H)-yl)-4-methylphenyl)-3-(4-methyl-1H-imidazol-1-yl)-5-(trifluoromethyl)benzamide] | > 40% | > 40% | > 40% | > 40% | > 40% | > 40% | ≤ 40% | ≤ 40% | ≤ 40% | ≤ 40% | ≤ 40% | > 40% | > 40% | > 40% | ≤ 40% | > 40% | > 40% | > 40% | ≤ 40% | ≤ 40% | remaining activity at 1 µM (CAMKIG; CAMKIG): > 40%; remaining activity at 1 µM (MYO3A): > 40%; remaining activity at 1 µM (NEK5): > 40%; remaining activity at 1 µM (NEK9): > 40%; remaining activity at 1 µM (NLK): > 40%; remaining activity at 1 µM (PKN1/PRK1): > 40%; remaining activity at 1 µM (RET): ≤ 40%; remaining activity at 1 µM (RIPK4): > 40%; remaining activity at 1 µM (SIK3): ≤ 40%; remaining activity at 1 µM (SYK): > 40%; remaining activity at 1 µM (TBK1): > 40%; remaining activity at 1 µM (TRKB): ≤ 40%; remaining activity at 1 µM (TSSK3/STK22C): > 40%; remaining activity at 1 µM (ZIPK/DAPK3): > 40%
